Target: T1, PLK1 (Homo sapiens, UniProt P53350)
T1 construct: full-length PLK1, N-terminal NLuc fusion (NLuc-PLK1)
Assay: live-cell NanoBRET probe titration with and without excess compound […]
Type: cell-based

T1 sequence (P53350 whole entry, the tested form may be a part): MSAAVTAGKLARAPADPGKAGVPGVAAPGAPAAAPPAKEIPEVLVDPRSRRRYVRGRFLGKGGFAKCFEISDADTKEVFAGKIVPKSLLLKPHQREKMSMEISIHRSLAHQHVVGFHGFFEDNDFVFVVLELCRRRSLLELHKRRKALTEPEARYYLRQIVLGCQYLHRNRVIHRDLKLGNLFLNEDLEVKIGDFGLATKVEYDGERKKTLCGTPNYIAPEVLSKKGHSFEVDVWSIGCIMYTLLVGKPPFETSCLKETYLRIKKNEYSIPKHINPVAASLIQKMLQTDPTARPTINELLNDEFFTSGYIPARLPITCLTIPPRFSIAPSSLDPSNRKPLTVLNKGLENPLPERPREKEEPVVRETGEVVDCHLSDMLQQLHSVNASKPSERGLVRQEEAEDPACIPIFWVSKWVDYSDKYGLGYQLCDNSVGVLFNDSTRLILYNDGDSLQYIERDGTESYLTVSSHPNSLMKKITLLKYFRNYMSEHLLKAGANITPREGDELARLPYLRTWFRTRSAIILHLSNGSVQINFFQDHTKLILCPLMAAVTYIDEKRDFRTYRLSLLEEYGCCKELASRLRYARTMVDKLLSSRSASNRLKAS

EC50: 300 nM
SMILES: CC[C@@H]1C(=O)N(C)c2cnc(Nc3ccc(C(=O)NC4CCN(C(=O)CCOCCOCCOCCOCCNC(=O)CCc5ccc6n5[B-](F)(F)[N+]5=C(c7ccc[nH]7)C=CC5=C6)CC4)cc3OC)nc2N1C(C)C [compound 11, (R)-N-(1-(1-(5,5-difluoro-7-(1H-pyrrol-2-yl)-5H-5^λ,6^λ-dipyrrolo[1,2-c:2',1'-f][1,3,2]diazaborinin-3-yl)-3-oxo-7,10,13,16-tetraoxa-4-azanonadecan-19-oyl)piperidin-4-yl)-4-((7-ethyl-8-isopropyl-5-methyl-6-oxo-5,6,7,8-tetrahydropteridin-2-yl)amino)-3-methoxybenzamide]

From publication doi:10.1101/2023.02.25.529946, “Development of Cell Permeable NanoBRET Probes for the Measurement of PLK1 Target Engagement in Live Cells” (bioRxiv, 2023)
